ChEMBL document CHEMBL3232804, “Synthesis and evaluation of new diaryl ether and quinoline hybrids as potential antiplasmodial and antimicrobial agents” (Bioorg Med Chem Lett, 2014)
In brackets after ≈: the same amount, converted by molar mass.

Assays:
Plasmodium falciparum [1] = experiment: Antiplasmodial activity against chloroquine-resistant Plasmodium falciparum K1 infected after 72 hrs by Malaria SYBR Green I-staining based fluorescence assay; assay type: functional, organism-based; conditions: K1, 72 h
Aspergillus fumigatus = experiment: Antifungal activity against Aspergillus fumigatus clinical isolate after 72 to 96 hrs by standard broth microdilution method; assay type: functional
Cryptococcus neoformans = experiment: Antifungal activity against Cryptococcus neoformans clinical isolate after 24 to 48 hrs by standard broth microdilution method; assay type: functional
[2] = Selectivity index, ratio of IC50 for african green monkey Vero cells to IC50 for chloroquine-sensitive Plasmodium falciparum 3D7; assay type: toxicity, cell-based; conditions: read-out: Ratio IC50
Candida albicans = experiment: Antifungal activity against Candida albicans clinical isolate after 24 to 48 hrs by standard broth microdilution method; assay type: functional
Staphylococcus aureus = experiment: Antimicrobial activity against Staphylococcus aureus ATCC 25923 after 24 hrs by standard broth microdilution method; assay type: functional; conditions: ATCC 25923, 24 h
Escherichia coli = experiment: Antimicrobial activity against Escherichia coli ATCC 9637 after 24 hrs by standard broth microdilution method; assay type: functional; conditions: ATCC 9637, 24 h
Plasmodium falciparum [3] = experiment: Antiplasmodial activity against chloroquine-sensitive Plasmodium falciparum 3D7 infected after 72 hrs by Malaria SYBR Green I-staining based fluorescence assay; assay type: functional, organism-based; conditions: 3D7, 72 h
Pseudomonas aeruginosa = experiment: Antimicrobial activity against Pseudomonas aeruginosa ATCC BAA-427 after 24 hrs by standard broth microdilution method; assay type: functional; conditions: ATCC BAA-427, 24 h
[4] = tested on: Trichophyton mentagrophytes; experiment: Antifungal activity against Trichophyton mentagrophytes clinical isolate after 72 to 96 hrs by standard broth microdilution method; assay type: functional
Candida parapsilosis = experiment: Antifungal activity against Candida parapsilosis ATCC […] after 72 to 96 hrs by standard broth microdilution method; assay type: functional; conditions: Lodderomyces parapsilosis
Sporothrix schenckii = experiment: Antifungal activity against Sporothrix schenckii clinical isolate after 72 to 96 hrs by standard broth microdilution method; assay type: functional
Klebsiella pneumoniae = experiment: Antimicrobial activity against Klebsiella pneumoniae ATCC 27736 after 24 hrs by standard broth microdilution method; assay type: functional; conditions: ATCC 27736, 24 h

SMILES | IC50 (Plasmodium falciparum [1]) [nM] | MIC (Aspergillus fumigatus) [µg/mL] | MIC (Cryptococcus neoformans) [µg/mL] | selectivity ratio [2] | MIC (Candida albicans) [µg/mL] | MIC (Staphylococcus aureus) [µg/mL] | MIC (Escherichia coli) [µg/mL] | IC50 (Plasmodium falciparum [3]) [nM] | MIC (Pseudomonas aeruginosa) [µg/mL] | MIC [4] [µg/mL] | MIC (Candida parapsilosis) [µg/mL] | MIC (Sporothrix schenckii) [µg/mL] | MIC (Klebsiella pneumoniae) [µg/mL]
COC(=O)/C(C)=C/c1ccc(Oc2ccccc2N/C(=N/c2cccc(Cl)c2)NCCCCNc2ccnc3cc(Cl)ccc23)cc1 | > 800 | > 50 | > 50 | 80.7 | 50 (≈ 74.8 µM) | 3.12 (≈ 4.67 µM) | 12.5 (≈ 18.7 µM) | 31.2 | > 50 | > 50 | > 50 | > 50 | > 50
COc1ccc(Oc2ccc(N/C(=N/c3cccc(Cl)c3)NCCCCNc3ccnc4cc(Cl)ccc34)cc2)cc1 | 147 | 25 (≈ 41.6 µM) | 12.5 (≈ 20.8 µM) | 61.2 | 6.25 (≈ 10.4 µM) | 6.25 (≈ 10.4 µM) | 25 (≈ 41.6 µM) | 75.7 | > 50 | 6.25 (≈ 10.4 µM) | 6.25 (≈ 10.4 µM) | 6.25 (≈ 10.4 µM) | 25 (≈ 41.6 µM)
COC(=O)/C(C)=C/c1ccc(Oc2ccc(N/C(=N/c3ccc(Cl)cc3)NCCNc3ccnc4cc(Cl)ccc34)cc2)cc1 | > 800 | 25 (≈ 39 µM) | 6.25 (≈ 9.76 µM) | 69.2 | 6.25 (≈ 9.76 µM) | 6.25 (≈ 9.76 µM) | 12.5 (≈ 19.5 µM) | 43.1 | > 50 | 12.5 (≈ 19.5 µM) | 25 (≈ 39 µM) | 6.25 (≈ 9.76 µM) | 50 (≈ 78.1 µM)
COC(=O)/C(C)=C/c1ccc(Oc2ccccc2N/C(=N/c2ccc(Cl)cc2)NCCCNc2ccnc3cc(Cl)ccc23)cc1 | 263 | > 50 | 50 (≈ 76.4 µM) | 32.7 | 50 (≈ 76.4 µM) | 1.56 (≈ 2.38 µM) | 12.5 (≈ 19.1 µM) | 74.5 | > 50 | 25 (≈ 38.2 µM) | > 50 | 25 (≈ 38.2 µM) | > 50
Clc1ccc(Cl)c(Oc2ccc(N/C(=N/c3ccccc3)NCCCNc3ccnc4cc(Cl)ccc34)cc2)c1 | > 846 | 6.25 (≈ 10.6 µM) | 6.25 (≈ 10.6 µM) | 164 | 12.5 (≈ 21.2 µM) | 12.5 (≈ 21.2 µM) | 3.12 (≈ 5.28 µM) | 23.1 | > 50 | 6.25 (≈ 10.6 µM) | 6.25 (≈ 10.6 µM) | 3.12 (≈ 5.28 µM) | 25 (≈ 42.3 µM)
COc1ccc(Oc2ccccc2N/C(=N/c2cccc(Cl)c2)NCCCNc2ccnc3cc(Cl)ccc23)cc1 |  | > 50 | 50 (≈ 85.2 µM) | 10.4 | 6.25 (≈ 10.7 µM) | 3.12 (≈ 5.32 µM) | 3.12 (≈ 5.32 µM) | 369 | > 50 | 6.25 (≈ 10.7 µM) | 50 (≈ 85.2 µM) | 6.25 (≈ 10.7 µM) | 25 (≈ 42.6 µM)
CN[C@H](CC(C)C)C(=O)N[C@H]1C(=O)N[C@@H](CC(N)=O)C(=O)N[C@H]2C(=O)N[C@H]3C(=O)N[C@H](C(=O)N[C@H](C(=O)O)c4cc(O)cc(O)c4-c4cc3ccc4O)[C@H](O)c3ccc(c(Cl)c3)Oc3cc2cc(c3O[C@@H]2O[C@H](CO)[C@@H](O)[C@H](O)[C@H]2O[C@H]2C[C@](C)(N)[C@H](O)[C@H](C)O2)Oc2ccc(cc2Cl)[C@H]1O [VANCOMYCIN] |  |  |  |  |  | 0.78 (≈ 0.538 µM) | > 50 |  | > 50 |  |  |  | > 50
COC(=O)/C(C)=C/c1ccc(Oc2ccccc2N/C(=N/c2ccccc2)NC2CC2)cc1 | > 1200 | > 50 | > 50 |  | > 50 | > 50 | > 50 | > 1200 | > 50 | > 50 | > 50 | > 50 | 12.5 (≈ 28.3 µM)
COC(=O)/C(C)=C/c1ccc(Oc2ccccc2N/C(=N/c2cccc(Cl)c2)NC2CC2)cc1 | > 1200 | > 50 | > 50 |  | 50 (≈ 105 µM) | 25 (≈ 52.5 µM) | > 50 | > 1200 | > 50 | 25 (≈ 52.5 µM) | > 50 | > 50 | 12.5 (≈ 26.3 µM)
COc1ccc(Oc2ccccc2N/C(=N/c2ccccc2)NCCNc2ccnc3cc(Cl)ccc23)cc1 | 193 | > 50 | > 50 |  | > 50 | 50 (≈ 92.9 µM) | > 50 | 42 | > 50 | > 50 | > 50 | 50 (≈ 92.9 µM) | > 50
COc1ccc(Oc2ccccc2N/C(=N/c2ccc(Cl)cc2)NCCCNc2ccnc3cc(Cl)ccc23)cc1 | > 800 |  | 50 (≈ 85.2 µM) | 123 | > 50 | > 50 | > 50 | 241 | 50 (≈ 85.2 µM) |  |  | 25 (≈ 42.6 µM) | 50 (≈ 85.2 µM)
COc1cccc(OC)c1C(=O)N[C@@H]1C(=O)N2[C@@H]1SC(C)(C)[C@@H]2C(=O)O [METHICILLIN] |  |  |  |  |  | 1.56 (≈ 4.1 µM) | > 50 |  | > 50 |  |  |  | > 50
